{"source": "patent US20060084688A1", "about": "“Aromatic sulfone hydroxamic acid metalloprotease inhibitor” (priority 1997, published 2006)", "key": {"[1]": {"test_system": "neovascularization of the corneal stroma", "experiment": "In vivo angiogenesis assay (corneal micropocket, bFGF/sucralfate Hydron pellet)", "design": "species or system C57Bl/6 female mouse", "conditions": "50 mpk bid, po; scored at day five; average of n studies", "experimental": "The study of angiogenesis depends on a reliable and reproducible model for the stimulation and inhibition of a neovascular response. The corneal micropocket assay provides such a model of angiogenesis in the cornea of a mouse. See, A Model of Angiogenesis in the Mouse Cornea; Kenyon, BM, et al., Investigative Ophthalmology & Visual Science, July 1996, Vol. 37, No. 8.\nIn this assay, uniformLy sized Hydron™ pellets containing bFGF and sucralfate were prepared and surgically implanted into the stroma mouse cornea adjacent to the temporal limbus. […]\nMice were dosed on a daily basis for the duration of the assay. […] At day five, the degree of angiogenic inhibition was scored by viewing the neovascular progression with a slit lamp microscope.\nThe mice were anesthetized and the studied eye was once again proptosed. The maximum vessel length of neovascularization, extending from the limbal vascular plexus toward the pellet was measured. In addition, the contiguous circumferential zone of neovascularization was measured as clock hours, where 30 degrees of arc equals one clock hour. The area of angiogenesis was calculated as follows. […]\nFive to six mice were utilized for each compound in each study. The studied mice were thereafter compared to control mice and the difference in the area of neovascularization was recorded as an averaged value. […]"}, "[2]": {"test_system": "PC-3 human pancreatic cancer cells (ATCC CRL 1435)", "experiment": "In vivo PC-3 tumor reduction", "design": "species or system Balb/c nu/nu mice", "conditions": "day 0 to day 25-30, average of n studies", "experimental": "PC-3 human pancreatic cancer eclls (ATCC CRL 1435) were grown to 90% confluence in F12/MEM (Gibco) containing 7% FBS (Gibco). Cells were mechanically harvested using a rubber scraper, and then washed twice with cold medium. The resulting cells were resuspended in cold medium with 30% matrigel (Collaborative Research) and the cell-containing medium was maintained on ice until used.\nBalb/c nu/nu mice at 7-9 weeks of age were anesthetized with avertin [2,2,2-tribromethanol/t-amyl alcohol (1 g/l mL) diluted 1:60 into phosphate-buffered sline] and 3-5×10^6 of the above cells in 0.2 mL of medium were injected into the left flank of each mouse. Cells were injected in the morning, whereas dosing with an inhibitor began at 6 PM. The animals were gavaged BID from day zero (cell injection day) to day 25-30, at which time the animals were euthanized and tumors weighed.\nCompounds were dosed at 10 mg/mL in 0.5% methylcellulose/0.1% polysorbate 80 to provide a 50 mg/kg (mpk) dose twice each day, or diluted to provide a 10 mg/kg (mpk) dose twice each day. Tumor measurements began on day 7 and continued every third or fourth day until completion of the study. Groups of ten mice were used in each study and nine to ten survived. Each group of mice so studied constitutes an “n” value of one, so that “n” values greater than one represent multiple studies whose averaged result is provided in the table. […]"}, "[3]": {"test_system": "advanced, rapidly progressive, treatment-refractory solid tumor cancers (colorectal, pancreatic, ovarian, prostate)", "conditions": "Phase I/II, cited from earlier work"}}}
{"smiles": "CNC(=O)[C@@H](NC(=O)[C@H](CC(C)C)[C@H](O)C(=O)NO)C(C)(C)C", "note": "[marimastat]", "values": [{"measurement": "Inhibition of Angiogenesis (area of neovascularization vs control)", "setting": "[1]", "result": "48 (n = 6) percent"}, {"measurement": "Average Percentage Reduction In Tumor Weight", "setting": "[2]; 10 mpk BID gavage", "result": "<5", "unit": "%"}, {"measurement": "Average Percentage Reduction In Tumor Weight", "setting": "[2]; 50 mpk BID gavage", "result": "39 (n = 2) percent"}, {"measurement": "most common drug-related toxicity", "setting": "[3]; clinical trials", "result": "musculoskeletal pain and stiffness"}, {"measurement": "cancer-specific antigens used as surrogate markers for biological activity", "setting": "[3]; patients with advanced solid tumor cancers", "result": "dose-related reduction in the rise of cancer-specific antigens"}]}
